Measured values taken from patent US20110130704A1, “COMBINATION OF A LIGHT RAY AND A LIPASE-BIOCONVERTIBLE COMPOUND FOR IMPROVING SKIN AND/OR HAIR APPEARANCE” (L'OREAL, priority 2008, published 2011).

Experiments:
[1] = test system: lipase (reference L3126 from Sigma); test: Hydrolysis of ascorbyl palmitate by lipase with or without blue light radiation (palmitic acid released); format: biochemical; conditions: for Test - Control % of variation versus control: light 400-510 nm vs no light; for Test (in ppm palmitic acid released in reaction medium) / Control (in ppm palmitic acid released in reaction medium): lipase + ascorbyl palmitate; for Test (in ppm palmitic acid released in reaction medium): light 400-510 nm; for Control (in ppm palmitic acid released in reaction medium): no light exposure
Protocol: The lipase (reference L3126 from Sigma) is exposed with stirring to a light radiation with a predominant wavelength of 400-510 nm (FIG. 2: spectrum of blue light used, intensity 0.5 mW/cm^2) in the presence of ethyl lactate (from Sigma or Fluka) according to the set-up described in FIG. 1. The same protocol as that described in Example 1 is carried out, with the replacement of ethyl lactate by ascorbyl palmitate. In the presence of lipase, the ascorbyl palmitate hydrolyses to give palmitic acid and ascorbic acid. The lipase is exposed with stirring to the said radiation with a predominant wavelength ranging from 400 to 510 nm (blue spectrum) in the presence of ascorbyl palmitate. An increase in the hydrolysis proportional to the time of exposure of the lipase to the said radiation is found, as presented in the following table: […]

[2] = test system: lipase (reference L3126 from Sigma); test: Hydrolysis of ethyl lactate by lipase with or without blue light radiation (lactic acid formed is determined); format: biochemical; conditions: for Test - Control % of variation versus control: light 400-510 nm vs no light; for Test (ppm lactic acid in reaction medium) / Control (ppm lactic acid in reaction medium): lipase + ethyl lactate; for Test (ppm lactic acid in reaction medium): light 400-510 nm; for Control (ppm lactic acid in reaction medium): no light exposure
From the text: In the presence of lipase, ethyl lactate is hydrolysed to give L-lactate (which reacts with water to give lactic acid) and ethanol. The lactic acid thus formed is quantitatively determined.
The lipase (reference L3126 from Sigma) is exposed with stirring to a light radiation with a predominant wavelength of 400-510 nm (FIG. 2: spectrum of blue light used, intensity 0.5 mW/cm^2) in the presence of ethyl lactate (from Sigma or Fluka) according to the set-up described in FIG. 1.
The control corresponds to bringing together the lipase and the ethyl lactate under the same conditions, without exposure to the said light radiation. An increase in the hydrolysis of the ethyl lactate, with respect to the control, is found.

## CCCCCCCCCCCCCCCC(=O)OC[C@H](O)[C@H]1OC(=O)C(O)=C1O [ascorbyl palmitate]
[1]; reaction time 20 min
  Test - Control % of variation versus control: 1.71%
  Test (in ppm palmitic acid released in reaction medium): 63.96 ppm
  Control (in ppm palmitic acid released in reaction medium): 62.89 ppm
[1]; reaction time 40 min
  Test - Control % of variation versus control: 2.95%
  Test (in ppm palmitic acid released in reaction medium): 77.15 ppm
  Control (in ppm palmitic acid released in reaction medium): 74.87 ppm
[1]; reaction time 60 min
  Test - Control % of variation versus control: 9.92%
  Test (in ppm palmitic acid released in reaction medium): 98.99 ppm
  Control (in ppm palmitic acid released in reaction medium): 89.16 ppm
[1]; reaction time 90 min
  Test - Control % of variation versus control: 11.72%
  Test (in ppm palmitic acid released in reaction medium): 119.51 ppm
  Control (in ppm palmitic acid released in reaction medium): 105.5 ppm

## CCOC(=O)C(C)O (stereo not drawn) [ethyl lactate]
[2]; reaction time 20 min
  Test - Control % of variation versus control: 5.16%
  Control (ppm lactic acid in reaction medium): 0.45 ppm
[2]; reaction time 40 min
  Test - Control % of variation versus control: 9.08%
  Control (ppm lactic acid in reaction medium): 0.62 ppm
[2]; reaction time 90 min
  Test - Control % of variation versus control: 17.94%
  Control (ppm lactic acid in reaction medium): 0.69 ppm
[2]; 0.5 mW/cm^2, reaction time 20 min
  Test (ppm lactic acid in reaction medium): 0.48 ppm
[2]; 0.5 mW/cm^2, reaction time 40 min
  Test (ppm lactic acid in reaction medium): 0.69 ppm
[2]; 0.5 mW/cm^2, reaction time 90 min
  Test (ppm lactic acid in reaction medium): 0.84 ppm
